Patent US20260256782A1, “COMBINATION THERAPIES COMPRISING MYC MODULATION” (FLAGSHIP PIONEERING INNOVATIONS V, INC., priority 2022, published 2026)
Read-outs that look alike come from different tables or passages of the source. Blank lines part the entries; values can stand above or below the molecule they belong to.

What was measured:
Hep 3B cells = test: Cell viability (Celltiter-Glo), lenvatinib in combination with bicistronic ZF9-MQ1_ZF3-KRAB DS; Bliss synergy (SynergyFinder 2.0); format: cell-based; settings: Homo sapiens, Hep3B, 72 h
Method: (§1) […] Cell viability (Celltiter-Glo) levels were assessed 72 hours after treatment. Bliss synergy scores calculated using SyngeryFinder 2.0 were used to determine combinatorial effect.
(§2) Bliss synergy scores calculated using SynergyFinder 2.0 were used to determine combinatorial effect. The degree of combination synergy, or antagonism, is quantified by comparing the observed drug combination response against the expected response, calculated using a reference model that assumes no interaction between drugs. The Bliss independence model assumes a stochastic process in which two drugs elicit their effects independently, and the expected combination effect can be calculated based on the probability of independent events. […] Bliss synergy scores plus lenvatinib for Hep 3B and SK-HEP-1 were 5.37 and 12.77.

SK-HEP-1 cells = test: as above; format: cell-based; settings: Homo sapiens, SK-HEP1, 72 h
Method: as §1, §2

Myc protein in PC9 cells = test: Myc protein by Western blot, osimertinib and/or MR-32054; format: cell-based; settings: PC9, 48 h, 1 μM osimertinib and/or 0.5 μg/ml MR-32054 in SSOP LNPs, normalized to untreated
PC9 cells = test: Cell viability (CellTiter Glo), osimertinib with control or MR-32054; format: cell-based; settings: Homo sapiens, PC-9, 72 h; read-out: IC50, reduction of viability
From the text: (§3) The CellTiter Glo (Promega) assay was used according to manufacturer's instructions to assess cell viability. […] Odyssey CLx Imaging System (LICOR) using near-infrared (NIR) fluorescence was used to capture and quantify the protein images.

[1] = test system: osimertinib-resistant cell lines derived from H1975 (OsimR_1.25 and OsimR_1.5); test: Cell viability (CellTiter Glo) after osimertinib or MR-32380 in osimertinib-resistant lines; format: cell-based; settings: OsimR_1.25 and OsimR_1.5, 72 hours, increasing doses
Method: Cell viability was assessed using the CellTiter Glo (Promega) assay used according to manufacturer's instructions.

[2] = test system: MYC protein in H1975 parental cells; test: MYC protein level by JESS system; format: cell-based; settings: 48 hours, 1 μM osimertinib or 1 μg/ml MR-32380 in SSOP
From the text: (§4) MYC protein levels were assess using a JESS system (Protein Simple). A 12-230 kDa pre-filled plate (Protein Simple) was loaded with protein lysate, antibody mix (MYC: Cell signaling technologies, actin: Cell signaling technologies, Goat anti-rabbit of mouse secondary antibodies conjugated with HRP, or fluorescent marker), and luminol master mix. The loaded plate and capillary cartridge (Protein Simple) were then transferred to the JESS system (Protein Simple) for imaging and quantification following manufacturer's protocol.

[3] = test system: MYC protein in osimertinib-resistant cell lines derived from H1975 (OsimR_1.25 and OsimR_1.5); test: MYC protein level by JESS system; format: cell-based; settings: osimertinib resistant H1975 cells, 48 hours, 1 μM osimertinib or 1 μg/ml MR-32380 in SSOP
From the text: as §4

[4] = test system: subcutaneous H1975 tumors with sensitizing EGFR mutations (L858R, T790M); test: H1975 subcutaneous tumor model, tumor growth; parameters: species or system mice; settings: mouse, in vivo
Method: Tumor growth was measured throughout the experiment (FIG. 15).
The length and width of tumors were measured three times weekly. Tumor volumes were calculated as width^2×length/2. Body weights were measured daily.

H1975 cells = test: cells; settings: Homo sapiens, NCI-H1975, 72 h, read-out: IC50, growth inhibition (cell viability)
From the text: as §3

IC50 (SK-HEP-1 cells; SK-HEP-1, 72 hours, lenvatinib without DS, read-out: IC50 of lenvatinib): 17700 nM
IC50 (SK-HEP-1 cells; SK-HEP-1, ZF9-MQ1_ZF3-KRAB concentration 0 μg/mL, cell viability 72 hours after treatment, read-out: Lenvatinib IC50): 17700 nM
IC50 (SK-HEP-1 cells; SK-HEP-1, ZF9-MQ1_ZF3-KRAB concentration 0.1 μg/mL, cell viability 72 hours after treatment, read-out: Lenvatinib IC50): 13300 nM
IC50 (SK-HEP-1 cells; SK-HEP-1, ZF9-MQ1_ZF3-KRAB concentration 0.6 μg/mL, cell viability 72 hours after treatment, read-out: Lenvatinib IC50): 3860 nM
IC50 (SK-HEP-1 cells; SK-HEP-1, ZF9-MQ1_ZF3-KRAB concentration 1.0 μg/mL, cell viability 72 hours after treatment, read-out: Lenvatinib IC50): 1910 nM
Structure (SMILES): COc1cc2nccc(Oc3ccc(NC(=O)NC4CC4)c(Cl)c3)c2cc1C(N)=O [lenvatinib]
IC50 (Hep 3B cells; ZF9-MQ1_ZF3-KRAB concentration 0 μg/mL, cell viability 72 hours after treatment, read-out: Lenvatinib IC50): 533 nM
IC50 (Hep 3B cells; ZF9-MQ1_ZF3-KRAB concentration 0.06 μg/mL, cell viability 72 hours after treatment, read-out: Lenvatinib IC50): 309 nM
IC50 (Hep 3B cells; ZF9-MQ1_ZF3-KRAB concentration 0.6 μg/mL, cell viability 72 hours after treatment, read-out: Lenvatinib IC50): 23 nM
IC50 (Hep 3B cells; ZF9-MQ1_ZF3-KRAB concentration 1.0 μg/mL, cell viability 72 hours after treatment, read-out: Lenvatinib IC50): 48 nM
IC50 (Hep 3B cells; lenvatinib without DS, read-out: half maximal inhibitory concentration (IC50) of lenvatinib): 533 nM

Structure (SMILES): C=CC(=O)Nc1cc(Nc2nccc(-c3cn(C)c4ccccc34)n2)c(OC)cc1N(C)CCN(C)C [osimertinib]
reduction of Myc protein levels (Myc protein in PC9 cells): 80%
IC50 (PC9 cells): 420 nM
cell viability (sensitivity) [1]: resistant to osimertinib
MYC protein level [2]: decreased MYC protein level
MYC protein level [3]: not affected
tumor growth (tumor volume) [4]: inhibit tumor growth

IC50 (H1975 cells): 140 nM
Structure (SMILES): CC(=O)Nc1cccc(-n2c(=O)n(C3CC3)c(=O)c3c(Nc4ccc(I)cc4F)n(C)c(=O)c(C)c32)c1 [trametinib]
